Results from patent US7576135B2, “Diamine derivatives” (Daiichi Pharmaceutical Co., Ltd., priority 2002, dated 2009).
Counter-ions that a name gives are not always drawn.

target: T1, human FXa (Homo sapiens, UniProt P00742); test: Determination of human FXa-inhibiting effect (IC50 value), chromogenic substrate S-2222; type: biochemical; conditions: substrate S-2222, absorbance at 405 nm, room temperature
T1 construct: purchased Enzyme Research Labolatories, Inc
Source text: Determination of Human FXa-Inhibiting Effect (IC50 Value):
As a control, Tris buffer was used in place of the test compound.

T1 sequence (P00742 235-488 limits assumed): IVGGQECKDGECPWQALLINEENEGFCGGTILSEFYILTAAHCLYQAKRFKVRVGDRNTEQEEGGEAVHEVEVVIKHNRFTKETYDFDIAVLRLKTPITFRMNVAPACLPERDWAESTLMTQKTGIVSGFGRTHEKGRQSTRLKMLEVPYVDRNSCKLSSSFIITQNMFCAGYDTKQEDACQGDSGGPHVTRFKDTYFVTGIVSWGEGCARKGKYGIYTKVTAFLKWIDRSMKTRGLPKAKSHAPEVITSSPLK
T1 sequence (P00742 41-179 partner limits assumed): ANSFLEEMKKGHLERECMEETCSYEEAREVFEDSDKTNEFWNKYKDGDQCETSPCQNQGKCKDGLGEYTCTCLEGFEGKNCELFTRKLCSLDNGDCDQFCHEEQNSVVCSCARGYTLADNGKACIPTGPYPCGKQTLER

Point of comparison: `Cc1nnc([C@H]2CC[C@H](NC(=O)C(=O)Nc3ccc(Br)cn3)[C@H](NC(=O)c3nc4c(s3)CN(C)CC4)C2)o1` [Ex. 396, N^1-(5-bromo-2-pyridinyl)-N^2-((1S,2R,4S)-4-(5-methyl-1,3,4-oxadiazol-2-yl)-2-{[(5-methyl-4,5,6,7-tetrahydrothiazolo[5,4-c]pyridin-2-yl)carbonyl]amino}cyclohexyl)ethanediamide hydrochloride], IC50 1.1 nM. Against it:
- C#Cc1ccc(NC(=O)C(=O)N[C@H]2CC[C@H](c3nnc(C)o3)C[C@H]2NC(=O)c2nc3c(s2)CN(C)CC3)nc1 [Ex. 402, N^1-(5-ethynylpyridin-2-yl)-N^2-((1S,2R,4S)-4-(5-methyl-1,3,4-oxadiazol-2-yl)-2-{[(5-methyl-4,5,6,7-tetrahydrothiazolo[5,4-c]pyridin-2-yl)carbonyl]amino}cyclohexyl)ethanediamide] — the same, 1.1 nM
- CN1CCc2nc(C(=O)N[C@@H]3C[C@@H](c4nnco4)CC[C@@H]3NC(=O)C(=O)Nc3ccc(Cl)cn3)sc2C1 [Ex. 385, N^1-(5-chloropyridin-2-yl)-N^2-[(1S,2R,4S)-2-{[(5-methyl-4,5,6,7-tetrahydrothiazolo[5,4-c]pyridin-2-yl)carbonyl]amino}-4-(1,3,4-oxadiazol-2-yl)cyclohexyl]ethanediamide] — within 1.5-fold, 1.3 nM
- CN1CCc2nc(C(=O)N[C@@H]3C[C@@H](n4cnnc4)CC[C@@H]3NC(=O)C(=O)Nc3ccc(Cl)cn3)sc2C1 [Ex. 394, N^1-(5-chloropyridin-2-yl)-N^2-(1S,2R,4S)-2-{[(5-methyl-4,5,6,7-tetrahydrothiazolo[5,4-c]pyridin-2-yl)carbonyl]amino}-4-(4H-1,2,4-triazol-4-yl)cyclohexyl)ethanediamide hydrochloride] — the same, 1.1 nM
- Cc1nnc([C@H]2CC[C@H](NC(=O)C(=O)Nc3ccc(Cl)cn3)[C@H](NC(=O)c3nc4c(s3)CN(C)CC4)C2)o1 [Ex. 384, N^1-(5-chloropyridin-2-yl)-N^2-[(1S,2R,4S)-2-{[(5-methyl-4,5,6,7-tetrahydrothiazolo[5,4-c]pyridin-2-yl)carbonyl]amino}-4-(5-methyl-1,3,4-oxadiazol-2-yl)cyclohexyl]ethanediamide hydrochloride] — within 1.5-fold, 1 nM
- CN1CCc2nc(C(=O)N[C@@H]3C[C@@H](n4cccc4)CC[C@@H]3NC(=O)C(=O)Nc3ccc(Cl)cn3)sc2C1 [Ex. 413, N^1-(5-chloropyridin-2-yl)-N^2-[(1S,2R,4S)-2-{[(5-methyl-4,5,6,7-tetrahydrothiazolo[5,4-c]pyridin-2-yl)carbonyl]amino}-4-(1H-pyrrol-1-yl)cyclohexyl]ethanediamide hydrochloride] — within 1.5-fold, 1 nM
- Cc1nnc([C@H]2CC[C@H](NC(=O)C(=O)Nc3ccc(Cl)s3)[C@H](NC(=O)c3nc4c(s3)CN(C)CC4)C2)o1 [Ex. 395, N^1-(5-chloro-2-thienyl)-N^2-((1S,2R,4S)-4-(5-methyl-1,3,4-oxadiazol-2-yl)-2-{[(5-methyl-4,5,6,7-tetrahydrothiazolo[5,4-c]pyridin-2-yl)carbonyl]amino}cyclohexyl)ethanediamide citric acid salt] — 1.5-fold lower, 0.72 nM

system: not given; test: not given; conditions: not given

For `CN1CCc2nc(C(=O)N[C@@H]3C[C@@H](C(=O)N(C)C)CC[C@@H]3NC(=S)C(=O)Nc3ccc(F)cn3)sc2C1` (hydrate or solvate), the melting point was 176 to 179 °C (dec.).

Compound `CN1CCc2nc(C(=O)N[C@@H]3CCS(=O)(=O)C[C@H]3NC(=O)c3cc4cc(F)ccc4[nH]3)sc2C1` (relative stereo) (as salt: hydrochloride) [Example 183, N-((3R*,4R*)-3-{[(5-Fluoroindol-2-yl)carbonyl]amino}-1,1-dioxohexahydro-1-thiopyran-4-yl)-5-methyl-4,5,6,7-tetrahydrothiazolo[5,4-c]pyridine-2-carboxamide hydrochloride] has a melting point of 244 to 249 °C.
